Assay results: US11654096B2 (L'OREAL, priority 2017, dated 2023)
Values joined by “and” are separate entries in the source; they are usually repeats but may differ in a detail not shown here. Equal values may be shown once.

What was measured:
Format in all cases: cell-based
[1] = system: normal human dermal fibroblasts (NHDFs); assay: Neosynthesis of total GAGs by NHDFs, [3H]-glucosamine incorporation; conditions: for % Control / Mean (cpm) / [3H]-glucosamine (cpm): total GAGs, NHDFs; for [3H]-glucosamine (cpm): single replicates
Procedure: (§1) The effects of the compounds on the neosynthesis of total and sulfated glycosaminoglycans (GAGs) were studied on two cell models, normal human epidermal keratinocytes (NHEKs) and normal human dermal fibroblasts (NHDFs). The effects of these compounds were evaluated by measuring: • the incorporation of [3H]-glucosamine into the total GAGs neosynthesized by NHEKs and by NHDFs, • the incorporation of [35S]-sulfate into the sulfated GAGs neosynthesized by NHEKs and by NHDFs.
(§2) The fibroblasts were seeded into wells and cultured in culture medium for 24 hours. The medium was then replaced with culture medium containing or not containing (controt) the compounds to be tested or the reference (TGF-β at 10 ng/ml), then the cells were incubated for 72 hours with the addition of the [35S]-sulfate radioactive label (sulfated GAGs) or of the [3H]-glucosamine radioactive label (total GAGs) for the final 24 hours of incubation.
(§3) At the end of the incubation, the glycosaminoglycans were extracted from the cells with a chaotropic buffer. The GAGs were then purified by ion exchange chromatography: adsorption of the anionic molecules on Q-Sepharose beads and desorption of the molecules of low or medium anionic nature, with a suitable solution.
(§4) The radioactivity incorporated into the molecules left on the support (GAGs, predominantly) was measured by liquid scintillation.
(§5) All the experimental conditions were performed in n=3.
(§6) The inter-group comparisons were performed using Student's non-paired two-sided t-test. The statistical analyses can be interpreted if n≥5; however, for n<5, the data calculated are provided only by way of indication.

[2] = system: normal human epidermal keratinocytes (NHEKs); assay: Neosynthesis of sulfated GAGs by NHEKs, [35S]-sulfate incorporation; conditions: for % Control / Mean (cpm) / [35S]-Sulfate (cpm): sulfated GAGs, NHEKs; for [35S]-Sulfate (cpm): single replicates
Procedure: as §1
(§7) The keratinocytes were seeded into wells and cultured in culture medium for 24 hours. The medium was then replaced with culture medium containing or not containing (control) the compounds to be tested or the reference (4-nitrophenyl β-D-xylopyranoside at 300 μM), then the cells were incubated for 72 hours with the addition of the [3H]-glucosamine radioactive label (total GAGs) or of the [35S]-sulfate radioactive label (sulfated GAGs) for the final 24 hours of incubation.
as §3, §4, §5, §6

[3] = system: normal human dermal fibroblasts (NHDFs); assay: Neosynthesis of sulfated GAGs by NHDFs, [35S]-sulfate incorporation; conditions: sulfated GAGs, NHDFs; for [35S]-Sulfate (cpm): single replicates
Procedure: as §1, §2, §3, §4, §5, §6

[4] = system: normal human epidermal keratinocytes (NHEKs); assay: Neosynthesis of total GAGs by NHEKs, [3H]-glucosamine incorporation; conditions: for % Control / Mean (cpm) / [3H]-glucosamine (cpm): total GAGs, NHEKs; for [3H]-glucosamine (cpm): single replicates
Procedure: as §1, §7, §3, §4, §5, §6

With `Oc1cc(O)cc(/C=C/c2ccc(O[C@@H]3OC[C@@H](O)[C@H](O)[C@H]3O)cc2)c1` [Compound 2a, 4-[(E)-2-(3,5-dihydroxy-phenyl)ethenyl]phenyl β-D-xylopyranoside] the “effect on the neosynthesis of the total GAGs by the NHDFs (in words)” value ([1]; tested at 10 and 100 μM) was “stimulated in a concentration-dependent manner”, the “% Control” value ([1]; campaign 2, 10 μM) was 104% and the “Mean (cpm)” value ([1]; campaign 2, 10 μM) was 1624 cpm. For the same molecule, the “[3H]-glucosamine (cpm)” value ([1]; campaign 2, 10 μM) was 1758 cpm and 1479 cpm and 1636 cpm, the “% Control” value ([1]; campaign 2, 100 μM) was 126% and the “Mean (cpm)” value ([1]; campaign 2, 100 μM) was 1973 cpm. The “[3H]-glucosamine (cpm)” value ([1]; campaign 2, 100 μM) was 1958 cpm and 1959 cpm and 2003 cpm, the “% Control” value ([2]; campaign 2, 1 μM) was 114% and the “Mean (cpm)” value ([2]; campaign 2, 1 μM) was 6073 cpm. The “[35S]-Sulfate (cpm)” value ([2]; campaign 2, 1 μM) was 5974 cpm and 6365 cpm and 5879 cpm, the “% Control” value ([2]; campaign 2, 10 μM) was 240% and the “Mean (cpm)” value ([2]; campaign 2, 10 μM) was 12748 cpm. For the same molecule, the “[35S]-Sulfate (cpm)” value ([2]; campaign 2, 10 μM) was 11209 cpm and 13332 cpm and 13703 cpm, the “effect on the neosynthesis of the sulfated GAGs by the NHEKs (in words)” value ([2]; tested at 1 and 10 μM) was “stimulated in a concentration-dependent manner” and the “% Control” value ([3]; campaign 2, 10 μM) was 141%. For the same molecule, the “Mean (cpm)” value ([3]; campaign 2, 10 μM) was 795 cpm, the “[35S]-Sulfate (cpm)” value ([3]; campaign 2, 10 μM) was 765 cpm and 835 cpm and 786 cpm and the “% Control” value ([3]; campaign 2, 100 μM) was 533%. For the same molecule, the “Mean (cpm)” value ([3]; campaign 2, 100 μM) was 3015 cpm, the “[35S]-Sulfate (cpm)” value ([3]; campaign 2, 100 μM) was 2858 cpm and 3230 cpm and 2958 cpm and the “effect on the neosynthesis of the total GAGs by the NHEKs (in words)” value ([4]; tested at 1 and 10 μM) was “stimulated in a concentration-dependent manner”. The “% Control” value ([4]; campaign 2, 1 μM) was 120%, the “Mean (cpm)” value ([4]; campaign 2, 1 μM) was 10215 cpm and the “[3H]-glucosamine (cpm)” value ([4]; campaign 2, 1 μM) was 9472 cpm and 10133 cpm and 11041 cpm. The “% Control” value ([4]; campaign 2, 10 μM) was 151%, the “Mean (cpm)” value ([4]; campaign 2, 10 μM) was 12844 cpm and the “[3H]-glucosamine (cpm)” value ([4]; campaign 2, 10 μM) was 11913 cpm and 12452 cpm and 14167 cpm.
With “TGF-β: reference for the fibroblast assays, at 10 ng/ml” the “% Control” value ([1]; campaign 2, 10 ng/ml) was 331%, the “Mean (cpm)” value ([1]; campaign 2, 10 ng/ml) was 5167 cpm and the “[3H]-glucosamine (cpm)” value ([1]; campaign 2, 10 ng/ml) was 5999 cpm and 4173 cpm and 5328 cpm. For the same molecule, the “% Control” value ([3]; campaign 1, 10 ng/ml) was 208%, the “Mean (cpm)” value ([3]; campaign 1, 10 ng/ml) was 3433 cpm and the “[35S]-Sulfate (cpm)” value ([3]; campaign 1, 10 ng/ml) was 3397 cpm and 3492 cpm and 3411 cpm. The “% Control” value ([3]; campaign 2, 10 ng/ml) was 257%, the “Mean (cpm)” value ([3]; campaign 2, 10 ng/ml) was 1452 cpm and the “[35S]-Sulfate (cpm)” value ([3]; campaign 2, 10 ng/ml) was 1471 cpm and 1482 cpm and 1403 cpm.
